Test results from patent US9358236B2, “Combinations of therapeutic agents for use in the treatment of neurodegenerative diseases” (Novartis AG, priority 2011, dated 2016).
“Also recorded” adds a separate entry of the source.

What was measured:
p-S6 S240/244 = test: mTORC1 activity (p-S6 S240/244) by Western blot in R6/2 brain slices; type: cell-based, mouse; conditions: R6/2 slices treated DIV14 to DIV21, analysed at DIV21
LC3-II/I conversion = test: Autophagy induction (LC3-II/I conversion) by Western blot in R6/2 brain slices; type: cell-based; conditions: R6/2 slices treated DIV14 to DIV21, analysed at DIV21
Protocol: (§1) Transgenic mice expressing human Huntingtin Exon-1Q200 (R6/2 mouse model described in Davies et al., 1997) were housed in a temperature-controlled room and maintained on a 12 hr light/dark cycle. Food and water were available ad libitum and experiments were carried out in accordance with the local authorization guidelines for the care and use of laboratory animals. Slice cultures were established according to the procedure described by Stoppini and colleagues (Stoppini et al., 1991 and Gogolla et al., 2006) and a particular cutting angle was utilized to produce brain slices with a preserved cortico-striatal pathway. Finally, slices were selected, placed on Millicel (Millipore, PICM03050) and cultured in 6-well dishes at 35° C. and 5% CO2 in the presence of 1 ml of culture medium.
Slices were treated with different mTOR inhibitors from DIV14 to DIV21. The culture medium was exchanged every second day, and drugs were added in the fresh culture medium. We used this protocol to evaluate the action of the following mTOR inhibitors: BEZ235 (50 and 300 nM in DMSO), RAD001 (250 nM in DMSO), CCG168 (300 nM in DMSO), RAD001+BEZ235 (250 10, 250 30 and 250 50 nM in DMSO) and RAD001'CCG168 (250 and 50 nM in DMSO).
Slices were washed in PBS and lysed in 1% Triton X-100/PBS containing Complete Mini (Roche, #04693124001) and PhosSTOP (Roche, #04906837001). Lysates were ultrasonicated and analysed by Western blotting for B-actin (Sigma, #A5441), pS6 Ser 240/244 (Cell Signalling, #2215), and LC3B (Cell Signalling, #2775). Immunoblots were developed with ECL detection reagent (Amersham Biosciences).

polyQ inclusions = test: polyQ density by immunohistochemistry in R6/2 brain slices; type: cell-based, mouse; conditions: R6/2 slices at DIV21, vs control R6/2
Protocol: as §1
(§2) Slices were treated with different mTOR inhibitors from DIV14 to DIV21. The culture medium was exchanged every second day, and drugs were added in the fresh culture medium. […]
(§3) High resolution images were acquired on an upright Zeiss LSM700 confocal microscope, using a Plan-Neofluar 40×/1.3 oil immersion objective. For the quantification of the PolyQ density and DARPP-32/NeuF signal intensity, at least three confocal 3D stacks/slice were acquired in striatum for each experiment (five slices per condition), and analyzed using Imaris 4.2 (Bitplane AG) and Image J softwares.
(§4) All data are expressed as mean±SEM. […]

DARPP-32 = test: Striatal degeneration: DARPP-32 intensity in R6/2 brain slices; type: cell-based, mouse; conditions: R6/2 slices at DIV21
Protocol: as §1, §2, §3, §4

neurofilament = test: Striatal degeneration: neurofilament intensity in R6/2 brain slices; type: cell-based, mouse; conditions: R6/2 slices at DIV21
Protocol: as §1, §2, §3, §4

mTOR = mTOR (Homo sapiens, UniProt P42345); conditions: low concentration; Serra et al., 2008; cited from earlier work
PI3K/mTOR = conditions: relatively higher concentrations; Serra et al., 2008; cited from earlier work
[1] = single low-concentration (50 nM)
[2] = single low-concentration (250 nM)

Question: With `Cn1c(=O)n(-c2ccc(C(C)(C)C#N)cc2)c2c3cc(-c4cnc5ccccc5c4)ccc3ncc21` [BEZ235, 2-methyl-2-[4-(3-methyl-2-oxo-8-quinolin-3-yl-2,3-dihydro-imidazo[4,5-c]quinolin-1-yl)-phenyl]-propionitrile] as the molecule, how does the “p-S6 S240/244 level” value (p-S6 S240/244; 50 nM) read?
Answer: did not reduce

Question: What about the “LC3-II/I conversion (autophagy induction)” value (“LC3-II/I conversion” for short) (LC3-II/I conversion; 50 nM) of the same molecule?
Answer: no effect

Question: What about the “LC3-II/I conversion” value (LC3-II/I conversion; 300 nM) of the same molecule?
Answer: induced autophagy; also recorded: reached similar efficacy

Question: What about the polyQ density (polyQ inclusions; 50 nM) of the same molecule?
Answer: no effect

Question: What about the “preservation of DARPP-32 level” value (DARPP-32; [1]) of the same molecule?
Answer: ineffective

Question: What about the “preservation of neurofilament level” value (neurofilament; [1]) of the same molecule?
Answer: ineffective

Question: What about the “concentration at which mTOR inhibition predominates” value (mTOR) of the same molecule?
Answer: less than 100 nmol/L

Question: What about the “concentration giving dual PI3K/mTOR inhibition” value (PI3K/mTOR) of the same molecule?
Answer: approximately 500 nmol/L

Question: With `COc1ccc(-c2ccc3c(N4CCOC[C@@H]4C)nc(N4CCOC[C@@H]4C)nc3n2)cc1CO` [CCG168, {5-[2,4-bis-((S)-3-methyl-morpholin-4-yl)-pyrido[2,3d]pyrimidin-7-yl]-2-methoxy-phenyl}-methanol] as the molecule, how does the “LC3-II/I conversion” value (LC3-II/I conversion; 300 nM) read?
Answer: induced autophagy; also recorded: reached similar efficacy

Question: With `CO[C@H]1C[C@@H]2CC[C@@H](C)[C@@](O)(O2)C(=O)C(=O)N2CCCC[C@H]2C(=O)O[C@H]([C@H](C)C[C@@H]2CC[C@@H](OCCO)[C@H](OC)C2)CC(=O)[C@H](C)/C=C(\C)[C@@H](O)[C@@H](OC)C(=O)[C@H](C)C[C@H](C)/C=C/C=C/C=C/1C` [RAD001, (1R,9S,12S,15R,16E,18R,19R,21R,23S,24E,26E,28E,30S,32S,35R)-1,18-dihydroxy-12-{(1R)-2-[(1S,3R,4R)-4-(2-hydroxyethoxy)-3-methoxycyclohexyl]-1-methylethyl}-19,30-dimethoxy-15,17,21,23,29,35-hexamethyl-11,36-dioxa-4-aza-tricyclo[30.3.1.0^4,9]hexatriaconta-16,24,26,28-tetraene-2,3,10,14,20-pentaone] as the molecule, how does the “p-S6 S240/244 level” value (p-S6 S240/244; 250 nM) read?
Answer: reduced

Question: And the “LC3-II/I conversion” value (LC3-II/I conversion; 250 nM)?
Answer: no effect

Question: And the polyQ density (polyQ inclusions; 250 nM)?
Answer: no effect

Question: What about the “preservation of DARPP-32 level” value (DARPP-32; [2]) of the same molecule?
Answer: ineffective

Question: What about the “preservation of neurofilament level” value (neurofilament; [2]) of the same molecule?
Answer: ineffective
